System: MDCK cells
Assay: HGF-induced epithelial-mesenchymal transition / migration of MDCK cells on transwell filters (crystal violet densitometry)
Assay type: cell-based
Settings: then HGF, percentage like untreated controls (unstimulated cells = maximal effect, HGF only = nil); for Assay Value: 10 μM compound, 24 hours; for inhibition at 10 µM: Canis lupus familiaris, MDCK, 24 h
Experimental: MDCK cells were seeded at confluency into the wells of a transwell filter in DMEM with 10% fetal bovine serum. Cells were cultured for 24 hours. Test compounds, dissolved in DMSO, were added to each test well to a 10 μM final concentration, and then hepatocyte growth factor (HGF) was then added. The MDCK cells were cultured for 24 hours. Concurrently, controls treated with and without HGF and with no test compounds were also prepared.
After post-HGF addition culturing, transwell filters were prepared by repeated washing using ice cold PBS. The cells were then fixed with paraformaldehyde (3.7%) on ice for 15 minutes to the filters. After fixation, the transwell filters were washed repeatedly with PBS followed by staining with crystal violet for 15 minutes. The transwell filters were washed again with distilled water.
The upper surface of the transwell filters were swabbed using a cotton-tipped probe. The filters were photographed using a gel documentation system. Densitometry measurements were made on the test samples and compared with control samples.

SMILES: COc1cc2c(cc1OC)C(c1cccc(OCc3ccccc3)c1)CC(=O)N2 (centres unmarked) [Compound 60]
- Assay Value (Table 2): <5%

SMILES: CCCCOc1ccc(C(=O)Nc2ccc(N3CCCC3=O)cc2)cc1 [Compound B-30]
- inhibition at 10 µM (Table 5, 10 μM compound): 81.1%

SMILES: COc1ccc(OC)c(C2CC(=O)Nc3cc4c(cc32)OCCO4)c1 (centres unmarked) [Compound 16]
- Assay Value (Table 1): 15.1%

SMILES: COc1cccc(C2CC(=O)Nc3cc4c(cc32)CCC4)c1OC (centres unmarked) [Compound 92]
- Assay Value (Table 2): <5%

SMILES: Cc1nc(NC(=O)COc2ccc([N+](=O)[O-])cc2)ccc1I [Compound B-2]
- inhibition at 10 µM (Table 4, 10 μM compound): 96.9%

SMILES: O=C1CC(c2ccc(Cl)c(Cl)c2)c2cc3c(cc2N1)OCCO3 (centres unmarked) [Compound 51]
- Assay Value (Table 2): <5%

SMILES: O=C1CC(c2cccc(O)c2)c2cc3c(cc2N1)OCCO3 (centres unmarked) [Compound 19]
- Assay Value (Table 1): 7.8%

SMILES: O=C1CC(c2ccccc2C(F)(F)F)c2cc3c(cc2N1)OCO3 (centres unmarked) [Compound 87]
- Assay Value (Table 2): <5%

SMILES: Cc1ccc(/C=N/c2ccccc2C(N)=O)s1 [Compound A-10]
- inhibition at 10 µM (Table 3, 10 μM compound): 91.8%

SMILES: Cc1ccc(C)c(C2CC(=O)Nc3cc4c(cc32)OCCO4)c1 (centres unmarked) [Compound 14]
- Assay Value (Table 1): 8.8%

SMILES: COc1cc(CNc2ccc(N3CCOCC3)cc2)cc(Br)c1OC [Compound A-23]
- inhibition at 10 µM (Table 3, 10 μM compound): 31.9%

SMILES: CCOC(=O)c1[nH]c2c(c1C)C(=O)CC(c1ccco1)C2 (centres unmarked) [Compound C-4]
- inhibition at 10 µM (Table 6, 10 μM compound): 62.2%

SMILES: O=C1CC(c2ccc(OC(F)(F)F)cc2)c2cc3c(cc2N1)OCCO3 (centres unmarked) [Compound 78]
- Assay Value (Table 2): <5%

SMILES: O=C1CC(c2ccc(F)c(Br)c2)c2cc3c(cc2N1)OCCO3 (centres unmarked) [Compound 21]
- Assay Value (Table 1): 11.2%

SMILES: COc1cc(C2CC(=O)Nc3cc4c(cc32)OCCO4)ccc1OCc1ccccc1 (centres unmarked) [Compound 70]
- Assay Value (Table 2): <5%

SMILES: O=C1CC(c2ccccc2C(F)(F)F)c2cc3c(cc2N1)CCC3 (centres unmarked) [Compound 28]
- Assay Value (Table 1): 95.2%

SMILES: C#CCOc1c(Br)cc(CNc2ccc(Cl)c(Cl)c2)cc1OC [Compound A-24]
- Assay Value (Table 3): 16.3%

SMILES: NC(=O)c1ccccc1/N=C/c1ccc(Br)s1 [Compound A-12]
- inhibition at 10 µM (Table 3, 10 μM compound): 17.5%

SMILES: COc1ccc(OC)c(C2CC(=O)Nc3cc(OC)c(OC)c(OC)c32)c1 (centres unmarked) [Compound 30]
- Assay Value (Table 1): 52.3%

SMILES: O=C1CC(c2ccc(Cl)cc2Cl)c2cc3c(cc2N1)CCC3 (centres unmarked) [Compound 97]
- Assay Value (Table 2): <5%

SMILES: NC(=O)c1ccccc1/N=C/c1ccccc1[N+](=O)[O-] [Compound A-7]
- inhibition at 10 µM (Table 3, 10 μM compound): 11.7%

SMILES: CCOc1cc(C2CC(=O)Nc3cc4c(cc32)OCCO4)ccc1O (centres unmarked) [Compound 18]
- Assay Value (Table 1): 15.9%

SMILES: CCOc1ccc(Br)cc1C1CC(=O)Nc2cc3c(cc21)OCCO3 (centres unmarked) [Compound 9]
- Assay Value (Table 1): 64.9%

SMILES: NC(=O)c1ccccc1/N=C/c1ccc(Cl)cc1Cl [Compound A-18]
- inhibition at 10 µM (Table 3, 10 μM compound): < 5%

SMILES: Cc1c(C(=O)OC2CCCCC2)[nH]c2c1C(=O)CC(c1cccs1)C2 (centres unmarked) [Compound C-11]
- inhibition at 10 µM (Table 6, 10 μM compound): < 5%

SMILES: Cc1cccc(NS(=O)(=O)c2cccc([N+](=O)[O-])c2)c1 [Compound B-36]
- inhibition at 10 µM (Table 5, 10 μM compound): 79.2%

SMILES: CCCOc1ccc(C2CC(=O)Nc3cc(OC)c(OC)cc32)cc1 (centres unmarked) [Compound 43]
- Assay Value (Table 2): <5%

SMILES: CCOC(=O)c1[nH]c2c(c1C)C(=O)CC(c1ccccc1)C2 (centres unmarked) [Compound C-8]
- inhibition at 10 µM (Table 6, 10 μM compound): 30.6%

SMILES: CCOC(=O)c1[nH]c2c(c1C)C(=O)CC(c1cccs1)C2 (centres unmarked) [Compound C-2]
- inhibition at 10 µM (Table 6, 10 μM compound): 49.7%

SMILES: COc1ccc(C(=O)c2cc([N+](=O)[O-])ccc2N2CCOCC2)cc1 [Compound B-34]
- inhibition at 10 µM (Table 5, 10 μM compound): 93.4%

SMILES: COc1cc(C(=O)Nc2ccc(N(C)C)cc2)cc(OC)c1OC [Compound B-22]
- inhibition at 10 µM (Table 5, 10 μM compound): > 5%

SMILES: O=C1CC(c2cc3c(cc2Cl)OCO3)c2cc3c(cc2N1)OCCO3 (centres unmarked) [Compound 20]
- Assay Value (Table 1): 5.9%

SMILES: O=C1CC(c2ccccc2C(F)(F)F)c2cc3c(cc2N1)CCC3 (centres unmarked) [Compound 94]
- Assay Value (Table 2): <5%

SMILES: COc1cc2c(cc1OC)C(c1cc(Br)ccc1OC)CC(=O)N2 (centres unmarked) [Compound 66]
- Assay Value (Table 2): <5%

SMILES: COc1cc2c(cc1OC)C(c1ccc(Cl)cc1Cl)CC(=O)N2 (centres unmarked) [Compound 49]
- Assay Value (Table 2): <5%

Reference: patent US20130158035A1, “[…] COMPOUNDS” (Brigham Young University, priority 2010, published 2013)
